Experimental findings from patent US7541368B2, “Pyrazoles as inhibitors of tumor necrosis factor” (Aventis Pharmaceuticals Inc., priority 2003, dated 2009) are described below.

Assay [1] has as its target T1, Murine p38 (Mus musculus, UniProt P47811).
T1 construct: purchased CalBiochem 506122
The experiment in a line: Murine p38α standard assay against pre-activated p38 (ATF-2 phosphorylation, DELFIA). The note with it: murine p38, ATF-2 substrate. It counts as biochemical. Here is the method: Compounds of the invention were tested in a conventional assay against pre-activated p38. Murine p38 enzyme activity was determined by measuring the incorporation of the γ-phosphate of ATP into ATF-2.
Human GST-tagged ATF-2 (50 μg/ml) was coated onto 96 well plates. Assay buffer (25 mM Hepes buffer, pH 7.7 containing 25 mM magnesium chloride, 2 mM dithiothreitol, 1 mM sodium orthovanadate and 100 μM ATP) was then added to each well. Compounds were dissolved in DMSO (100%) and added to the assay buffer to give a fmal DMSO concentration of 0.3%. Murine p38 (CalBiochem Catalog # 506122; 40 ng/ml) was then added and the assay continued for 1 hour.
Phosphorylated ATF-2 was quantitated using a rabbit anti-human phospho (threonine 71)-specific ATF-2 primary antibody (Cell Signaling, Catalog # 9221B) followed by a sheep europium N^1-labelled anti-rabbit IgG secondary antibody (Perkin Elmer Life Sciences Catalog # AD0105) and addition of the DELFIA enhancement solution (Perkin Elmer Life Sciences) resulting.
Fluorescence was measured using a Wallac Victor^2 1420 multi-label HTS counter (Perkin Elmer Life Sciences). The results are reported as IC50 values. Compounds were tested over the concentration range of 3×10^−10M to 3>10^−5M.

Assay [2] relates to TNF-alpha release in THP-1 cells. Put plainly: LPS-induced TNF-alpha release in THP-1 cells. It counts as cell-based. The note with it: Homo sapiens, THP-1, LPS-stimulated THP-1 cells. In short, it runs like this: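 Undifferentiated THP-1 monocytes (1×10^6 cells/ml, 1% FCS) preincubated 1 h at 37° C with compound (1×10^−9 to 1×10^−6 M, 0.3% DMSO), then stimulated with LPS (20 μg/ml) for 18 h. Supernatant TNF-alpha measured by sandwich ELISA (TMB read-out), interpolated from a log/log standard curve (0.125-16 ng/ml).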

Assay [3] concerns Human HSP27 phosphorylation. Put plainly: HSP27 phosphorylation in LPS stimulated THP-1 cells. The note with it: Western blot, read-out: HSP-27. It counts as cell-based. Here is the method:
The effects of compounds on Heat Shock Protein (HSP)-27 phosphorylation in LPS stimulated THP-1 cells were examined as follows:
THP-1 cells were maintained as described for the TNF-alpha assay (1.1.).
THP-1 cells (1×10 ^6 cells/ml, total volume 1 ml) in culture medium were incubated for one hour (5% CO2, 37° C.) with fresh medium containing compounds (0.0001-30 μM) or vehicle (0.1% DMSO). LPS ([…]) was then added to the cells (except the untreated cell sample) and the incubation continued for a further 20 minutes. Cells were collected, centrifuiged and washed with ice-cold PBS buffer (free of Ca^2+ and Mg^2+). Cell lysates were prepared with 1× lysis buffer (Promega Catalog# E153A) for storage at −20° C.
HSP27 phosphorylation was determined by Western blot-enhanced chemi-luminescence (ECL-Amersham)). Briefly, cell lysates were electrophoresed on 12% Tris-glycine gels and transferred to nitrocellulose membranes. The membranes were then probed with primary rabbit antiphospho-HSP27 (ser82) antibody and secondary anti-rabbit antibody conjugated to horse raddish peroxidase. After addition of the ECL detection reagent, the film was developed and the p-HSP27 immunoreactivity quantified by densitometry.
(A western blot detects proteins with antibodies after separation by electrophoresis.)

Assay [4] concerns the target T2, Inactive N-terminal His6 tagged murine P38 (Mus musculus, UniProt P47811).
T2 construct: His6 (N); made in house
Put plainly: p38 cascade assay (HTRF; inactive p38 activated by MKK-6, ATF-2 phosphorylation). It counts as biochemical. The note with it: inactive p38 preincubated with compound, then MKK-6, ATF-2, ATP; read-out: 50% inhibition in the p38 cascade assay at concentrations within the range. Background: TR-FRET usually uses a lanthanide donor and a delayed reading to cut background.

[5] abbreviates: TNF-alpha by ELISA, read-out: THP 1 cells.
[6] abbreviates: read-out: 50% inhibition in the LPS-induced TNF-alpha release in THP-1 cells assay at concentrations within the range.

Molecules are shown by their SMILES. Like-named read-outs stand apart in the source and are kept apart here.

T1 sequence (P47811 whole entry): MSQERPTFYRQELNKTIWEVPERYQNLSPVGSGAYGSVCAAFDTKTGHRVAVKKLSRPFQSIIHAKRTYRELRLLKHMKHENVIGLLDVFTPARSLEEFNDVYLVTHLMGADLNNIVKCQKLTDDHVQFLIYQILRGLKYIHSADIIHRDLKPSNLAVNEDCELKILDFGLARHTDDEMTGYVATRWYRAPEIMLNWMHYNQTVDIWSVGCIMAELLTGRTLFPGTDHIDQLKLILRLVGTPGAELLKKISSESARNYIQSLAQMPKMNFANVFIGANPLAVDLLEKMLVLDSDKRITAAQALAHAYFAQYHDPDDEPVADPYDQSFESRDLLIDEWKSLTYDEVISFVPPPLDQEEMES
T2 sequence (P47811 whole entry): as above

Consider `COc1ccc(C(=O)N2CCC(Cc3ccccc3NC(=O)Nc3cc(C(C)(C)C)nn3-c3ccc(C)cc3)CC2)c(OC)c1` [Compound A1113, 1-(5-tert-butyl-2-p-tolyl-2H-pyrazol-3-yl)-3-{2-[1-(2,4-dimethoxy-benzoyl)-piperidin-4-ylmethyl]-phenyl}-urea], for which the IC50 in assay [1] was 500 nM; in assay [2] (setting [5]), 83 nM; in assay [2] (setting [6]), 10 to 500 nM.

On to `COc1ccc(C(=O)N2C3CCC2CC(Cc2ccc(NC(=O)Nc4cc(C(C)(C)C)nn4-c4ccc(C)cc4)cc2)C3)c(OC)c1` (stereo not shown) [Example 4, 1-(5-tert-Butyl-2-p-tolyl-2H-pyrazol-3-yl)-3-{4-[8-(2,4-dimethoxy-benzoyl)-8-aza-bicyclo[3.2.1]oct-3-ylmethyl]-phenyl}-urea], for which the IC50 in assay [1] came out at 1170 nM; in assay [2] (setting [5]), 79.5 nM.

Regarding `COc1ccc(C(=O)N2CCC(Cc3cccc(NC(=O)Nc4cc(C(C)(C)C)nn4-c4ccc(C)cc4)c3)CC2)c(OC)c1` [Compound A27, 1-(5-tert-butyl-2-p-tolyl-2H-pyrazol-3-yl)-3-{3-[1-(2,4-dimethoxy-benzoyl)-piperidin-4-ylmethyl]-phenyl}-urea], the IC50 is 27 nM in assay [3]; 10 to 100 nM in assay [4]; 216 nM in assay [1]; 10.6 nM in assay [2] (setting [5]); 10 to 500 nM in assay [2] (setting [6]).

Consider `COc1ccc(C(=O)N2CCC(Cc3ccc(NC(=O)Nc4cc(C(C)(C)C)nn4-c4ccc(C)cc4)cc3)CC2)c(OC)c1` [Compound A218, 1-(5-tert-Butyl-2-p-tolyl-2H-pyrazol-3-yl)-3-{4-[1-(2,4-dimethoxy-benzoyl)-piperidin-4-ylmethyl]-phenyl}-urea], for which the IC50 in assay [4] is 10 to 100 nM; in assay [1] it was 230 nM; in assay [2] (setting [5]), 15.5 nM; in assay [2] (setting [6]) it was 10 to 500 nM.

Regarding `Cc1ccc(-n2nc(C(C)(C)C)cc2NC(=O)Nc2cccc(CC3CCN(C(=O)c4ccc(C)s4)CC3)c2)cc1` [Compound A137, 1-(5-tert-Butyl-2-p-tolyl-2H-pyrazol-3-yl)-3-{3-[1-(5-methyl-thiophene-2-carbonyl)-piperidin-4-ylmethyl]-phenyl}-urea], the IC50 in assay [4] was 10 to 100 nM; in assay [2] (setting [6]), 10 to 500 nM.

In the case of `CC(=O)Nc1cccc(C(=O)N2CCC(Cc3cccc(NC(=O)Nc4cc(C(C)(C)C)nn4-c4ccc(C)cc4)c3)CC2)c1` [Compound A88, N-[3-(4-{3-[3-(5-tert-Butyl-2-p-tolyl-2H-pyrazol-3-yl)-ureido]-benzyl}-piperidine-1-carbonyl)-phenyl]-acetamide], the results for the IC50 in assay [4] and in assay [2] (setting [6]) were 10 to 100 nM and 10 to 500 nM, respectively.

With `COc1ccc(C(=O)N2C3CCC2CC(Cc2ccccc2NC(=O)Nc2cc(C(C)(C)C)nn2-c2ccc(C)cc2)C3)c(OC)c1` (stereo not shown) [Example 5, 1-(5-tert-butyl-2-p-tolyl-2H-pyrazol-3-yl)-3-{2-[8-(2,4-dimethoxy-benzoyl)-8-aza-bicyclo[3.2.1]oct-3-ylmethyl]-phenyl}-urea], the IC50 came out at 6750 nM in assay [1] and 5110 nM in assay [2] (setting [5]).

Turning to `Cc1ccc(-n2nc(C(C)(C)C)cc2NC(=O)Nc2cccc(CC3CCN(C(=O)c4cccnc4)CC3)c2)cc1` [Compound A181, 1-(5-tert-Butyl-2-p-tolyl-2H-pyrazol-3-yl)-3-{3-[1-(pyridine-3-carbonyl)-piperidin-4-ylmethyl]-phenyl}-urea], the IC50 in assay [4] is 10 to 100 nM; in assay [2] (setting [6]) it was 10 to 500 nM.
